Experimental data: patent US12377110B2, “Fospropofol methods and compositions” (Epalex Corporation, priority 2019, dated 2025)
Like-named read-outs stand apart in the source and are kept apart here.

Experiment: Study A16 Part 1: PK of single ascending oral doses of fospropofol disodium (200 to 2000 mg), fasted healthy adults
Format: in vivo, human
Settings: for half-life / AUC(0-t) / AUC(0-inf): both sexes; for half-life: read-out: Fospropofol t1/2 (converted); for AUC(0-t): read-out: Fospropofol AUC0-T; for AUC(0-inf): read-out: Fospropofol AUC0-∞; for Tmax: read-out: Fospropofol Tmax
Method: Part 1 of Study A16 was a double-blind, randomized, placebo-controlled study to investigate the safety-tolerability and PK of oral administration of single ascending doses of fospropofol disodium to healthy adult male and female volunteers.
Subjects were healthy adults (age 18-55 years inclusive, BMI 18-29.9 kg/m^2). Separate cohorts of 12 subjects each were randomized to receive fospropofol disodium at doses of 200, 400, 800, 1000, 1200, 1600, or 2000 mg (n=10 per cohort) or matching placebo (n=2 per cohort).
Subjects were admitted to the clinical unit for an overnight fast (Day −1), administered study drug on Day 1, and remained in the clinical unit until Day 2.
Fospropofol disodium was formulated as powder in an HPMC capsule, each capsule containing 200 mg of fospropofol disodium (weight adjusted for water content). Placebo was administered as an appropriate number of matching capsules.
Based on PK results from the early cohorts, sampling times were optimized beginning with Cohort 3 (800 mg) to preclose, 5, 10, 15, 20, 25, 30, 37, and 45, minutes and 1, 2, 4, 6, and 9 hours after closing.

[1] = human, plasma, oral fospropofol disodium 1200 mg, mean
[2] = human, plasma, oral fospropofol disodium 1600 mg, mean
[3] = human, plasma, oral fospropofol disodium 2000 mg, mean
[4] = oral fospropofol disodium 1200 mg, Fasted (Cohort 5), n = 10, mean
[5] = subjects 301-312 (800 mg cohort)

CC(C)c1cccc(C(C)C)c1OCOP(=O)(O)O [fospropofol, (2,6-diisopropylphenoxy)methyl dihydrogen phosphate]
half-life (human, plasma, oral fospropofol disodium 1000 mg, mean): 17.4 min | AUC(0-t) [1]: 4400 ng·h/mL | AUC(0-inf) [1]: 4500 ng·h/mL | half-life [1]: 20.4 min | AUC(0-t) [2]: 6090 ng·h/mL | AUC(0-inf) [2]: 6300 ng·h/mL | half-life [2]: 21 min | AUC(0-t) [3]: 10800 ng·h/mL | AUC(0-inf) [3]: 11000 ng·h/mL | half-life [3]: 22.2 min | Fospropofol concentration relative to Cmax (by 2 hours after dosing): less than 10 % of Cmax | Fospropofol AUC0-T/mg FOSP DiNa (dose 200 mg FOSPDiNa): 4.28 (ng · h/mL)/mg | Fospropofol AUC0-∞/mg FOSP DiNa (dose 200 mg FOSPDiNa): 4.41 (ng · h/mL)/mg | Fospropofol Cmax/mg FOSP DiNa (dose 200 mg FOSPDiNa): 9.89 (ng/mL)/mg | Fospropofol AUC0-T/mg FOSP DiNa (dose 400 mg FOSPDiNa): 5.51 (ng · h/mL)/mg | Fospropofol AUC0-∞/mg FOSP DiNa (dose 400 mg FOSPDiNa): 5.58 (ng · h/mL)/mg | Fospropofol Cmax/mg FOSP DiNa (dose 400 mg FOSPDiNa): 11.15 (ng/mL)/mg | Fospropofol AUC0-T/mg FOSP DiNa (dose 800 mg FOSPDiNa): 4.11 (ng · h/mL)/mg | Fospropofol AUC0-∞/mg FOSP DiNa (dose 800 mg FOSPDiNa): 4.20 (ng · h/mL)/mg | Fospropofol Cmax/mg FOSP DiNa (dose 800 mg FOSPDiNa): 7.55 (ng/mL)/mg | Fospropofol AUC0-T/mg FOSP DiNa (dose 1000 mg FOSPDiNa): 4.70 (ng · h/mL)/mg | Fospropofol AUC0-∞/mg FOSP DiNa (dose 1000 mg FOSPDiNa): 4.85 (ng · h/mL)/mg | Fospropofol Cmax/mg FOSP DiNa (dose 1000 mg FOSPDiNa): 8.24 (ng/mL)/mg | Fospropofol AUC0-T/mg FOSP DiNa (dose 1200 mg FOSPDiNa): 3.67 (ng · h/mL)/mg | Fospropofol AUC0-∞/mg FOSP DiNa (dose 1200 mg FOSPDiNa): 3.75 (ng · h/mL)/mg | Fospropofol Cmax/mg FOSP DiNa (dose 1200 mg FOSPDiNa): 5.93 (ng/mL)/mg | Fospropofol AUC0-T/mg FOSP DiNa (dose 1600 mg FOSPDiNa): 3.81 (ng · h/mL)/mg | Fospropofol AUC0-∞/mg FOSP DiNa (dose 1600 mg FOSPDiNa): 3.94 (ng · h/mL)/mg | Fospropofol Cmax/mg FOSP DiNa (dose 1600 mg FOSPDiNa): 6.40 (ng/mL)/mg | Fospropofol AUC0-T/mg FOSP DiNa (dose 2000 mg FOSPDiNa): 5.41 (ng · h/mL)/mg | Fospropofol AUC0-∞/mg FOSP DiNa (dose 2000 mg FOSPDiNa): 5.49 (ng · h/mL)/mg | Fospropofol Cmax/mg FOSP DiNa (dose 2000 mg FOSPDiNa): 8.54 (ng/mL)/mg | AUC (female, human, plasma, oral, 800 mg, females only (800 mg cohort), Mean, read-out: Fospropofol Auc1): 3050 ng·h/mL | AUC (female, human, plasma, oral, 800 mg, females only (800 mg cohort), Mean, read-out: Fospropofol Auc2): 3710 ng·h/mL | AUC (female, human, plasma, oral, 800 mg, females only (800 mg cohort), Mean, read-out: Fospropofol Auc4): 3870 ng·h/mL | Cmax (female, human, plasma, oral, 800 mg, females only (800 mg cohort), Mean, read-out: Fospropofol Cmax): 6730 ng/mL | Tmax (female, human, plasma, oral, 800 mg, females only (800 mg cohort), Mean): 22.2 min | AUC (female, human, plasma, oral, 800 mg, females only (800 mg cohort), individual subjects (Subject No. in c0), read-out: Fospropofol Auc1): 4160 ng·h/mL | AUC (female, human, plasma, oral, 800 mg, females only (800 mg cohort), individual subjects (Subject No. in c0), read-out: Fospropofol Auc2): 5000 ng·h/mL | AUC (female, human, plasma, oral, 800 mg, females only (800 mg cohort), individual subjects (Subject No. in c0), read-out: Fospropofol Auc4): 5160 ng·h/mL | Tmax (female, human, plasma, oral, 800 mg, females only (800 mg cohort), individual subjects (Subject No. in c0)): 30 min | Fospropofol Auc1 CV (%) (females only (800 mg cohort)): 23.3% | Fospropofol Auc2 CV (%) (females only (800 mg cohort)): 23.1% | Fospropofol Auc4 CV (%) (females only (800 mg cohort)): 23.3% | Fospropofol Cmax CV (%) (females only (800 mg cohort)): 32.2% | Fospropofol Tmax CV (%) (females only (800 mg cohort)): 27.3% | Fospropofol CL/F (oral fospropofol disodium 200 mg, mean): 277 L/h | Fospropofol CL/F (oral fospropofol disodium 400 mg, mean): 211 L/h | Fospropofol CL/F (oral fospropofol disodium 800 mg, mean): 254 L/h | Fospropofol CL/F (oral fospropofol disodium 1000 mg, mean): 229 L/h | Fospropofol AUC0-T [4]: 4399 ng·h/mL | Fospropofol CL/F [4]: 288 L/h | Fospropofol CL/F (oral fospropofol disodium 1200 mg, mean): 288 L/h | Fospropofol CL/F (oral fospropofol disodium 1600 mg, mean): 270 L/h | Fospropofol CL/F (oral fospropofol disodium 2000 mg, mean): 204 L/h | Fospropofol AUC1 CV (%) [5]: 23.6% | Fospropofol AUC2 CV (%) [5]: 26.0% | Fospropofol AUC4 CV (%) [5]: 27.2% | Fospropofol Cmax CV (%) [5]: 30.7% | Fospropofol Tmax CV (%) [5]: 29.2%
